Assay results reported in ChEMBL document CHEMBL6134851, “Comparative Study on Covalent and Noncovalent Endogenous Albumin-Binding β-Glucuronidase-Activated SN38 Prodrugs for Antitumor Efficacy” (J Med Chem, 2025).
Activity calls are given as the source filed them. No cut-off for these calls is given here.

Assays:
BXPC-3 [1] = test: Antitumor activity against human BXPC-3 cells xenografted in female BALB/cA nude mouse model assessed as suppression of tumor growth by measuring relative tumor proliferation rate at 25 mg/kg, iv measured after 24 days relative to control; type: functional; conditions: time 24 day
[2] = Toxicity in female BALB/cA nude mouse assessed as fibrotic changes in liver at 25 mg/kg, iv administered once a week for 35 days by H and E staining based analysis; type: organism-based; conditions: in vivo, 840 h, time 35 day
[3] = Toxicity in female BALB/cA nude mouse assessed as fibrotic changes in tumor at 25 mg/kg, iv administered once a week for 35 days by H and E staining based analysis; type: organism-based; conditions: in vivo, 840 h, time 35 day
[4] = Toxicity in female BALB/cA nude mouse assessed as appearance of inflammatory lesions in lung at 25 mg/kg, iv administered once a week for 35 days by H and E staining based analysis; type: organism-based; conditions: in vivo, 840 h, time 35 day
[5] = Toxicity in female BALB/cA nude mouse assessed as fibrotic changes in heart at 25 mg/kg, iv administered once a week for 35 days by H and E staining based analysis; type: organism-based; conditions: in vivo, 840 h, time 35 day
[6] = Toxicity in female BALB/cA nude mouse assessed as effect on body weight loss at 25 mg/kg, iv administered twice per week measured after 107 days; type: organism-based; conditions: in vivo, 2568 h, time 107 day
[7] = Toxicity in female BALB/cA nude mouse assessed as fibrotic changes in spleen at 25 mg/kg, iv administered once a week for 35 days by H and E staining based analysis; type: organism-based; conditions: in vivo, 840 h, time 35 day
[8] = Half life in female BALB/c mouse at 25 mg/kg measured up to 120 hrs by HPLC analysis; type: ADME, organism-based; conditions: in vivo
HCT-116 [9] = test: Antitumor activity against human HCT-116 cells xenografted in female BALB/cA nude mouse model assessed as increase in tumor cell apoptosis by measuring increase in red fluorescence at 25 mg/kg, iv by TUNEL analysis; type: functional, organism-based
[10] = Toxicity in female BALB/cA nude mouse assessed as effect on body weight loss at 25 mg/kg, iv administered once a week for 35 days; type: organism-based; conditions: in vivo, 840 h, time 35 day
HCT-116 [11] = test: Antitumor activity against human HCT-116 cells xenografted in female BALB/cA nude mouse model assessed as tumor shrinkage at 25 mg/kg, iv administered twice per week measured after 65 days relative to control; type: functional; conditions: time 65 day
HCT-116 [12] = test: Antitumor activity against human HCT-116 cells xenografted in female BALB/cA nude mouse model assessed as tumor shrinkage by measuring relative tumor proliferation rate at 25 mg/kg,iv administered twice per week and measured after 24 days relative to control; type: functional; conditions: time 24 day
[13] = Toxicity in female BALB/cA nude mouse assessed as appearance of inflammatory lesions in tumor at 25 mg/kg, iv administered once a week for 35 days by H and E staining based analysis; type: organism-based; conditions: in vivo, 840 h, time 35 day
[14] = Toxicity in female BALB/cA nude mouse assessed as necrosis in tumor tissue at 25 mg/kg, iv measured after 24 hrs by H and E staining based analysis; type: organism-based; conditions: in vivo
[15] = Cmax in female BALB/c mouse at 25 mg/kg measured up to 120 hrs by HPLC analysis; type: ADME, organism-based; conditions: in vivo
[16] = Toxicity in female BALB/cA nude mouse assessed as necrosis in tumor tissue at 38 mg/kg, iv measured after 24 hrs by H and E staining based analysis; type: organism-based; conditions: in vivo
[17] = Toxicity in female BALB/cA nude mouse assessed as appearance of inflammatory lesions in liver at 38 mg/kg, iv administered once a week for 35 days by H and E staining based analysis; type: organism-based; conditions: in vivo, 840 h, time 35 day
[18] = Toxicity in female BALB/cA nude mouse assessed as fibrotic changes in tumor at 38 mg/kg, iv administered once a week for 35 days by H and E staining based analysis; type: organism-based; conditions: in vivo, 840 h, time 35 day
[19] = Toxicity in female BALB/cA nude mouse assessed as fibrotic changes in kidney at 38 mg/kg, iv administered once a week for 35 days by H and E staining based analysis; type: organism-based; conditions: in vivo, 840 h, time 35 day
[20] = Clearance in female BALB/c mouse at 38 mg/kg measured up to 168 hrs by HPLC analysis; type: ADME, organism-based; conditions: in vivo
[21] = Toxicity in female BALB/cA nude mouse assessed as appearance of fibrosis in lung at 38 mg/kg, iv measured after 24 hrs by H and E staining based analysis; type: organism-based; conditions: in vivo
[22] = Toxicity in female BALB/cA nude mouse assessed as fibrotic changes in lung at 38 mg/kg, iv administered once a week for 35 days by H and E staining based analysis; type: organism-based; conditions: in vivo, 840 h, time 35 day
[23] = Cmax in female BALB/c mouse at 38 mg/kg measured up to 168 hrs by HPLC analysis; type: ADME, organism-based; conditions: in vivo
[24] = Prodrug release in female BALB/c nude mouse tumor assessed as (S)-4,11-diethyl-4,9-dihydroxy-1,12-dihydro-14H-pyrano[3',4':6,7]indolizino[1,2-b]quinoline-3,14(4H)-dione accumulation at 38 mg/kg measured after 6 hrs by HPLC analysis; type: ADME, organism-based, Neoplasm; conditions: in vivo
[25] = Toxicity in female BALB/cA nude mouse assessed as appearance of inflammatory lesions in kidney at 38 mg/kg, iv administered once a week for 35 days by H and E staining based analysis; type: organism-based; conditions: in vivo, 840 h, time 35 day
HCT-116 [26] = test: Antitumor activity against human HCT-116 cells xenografted in female BALB/cA nude mouse model assessed as relative tumor proliferation rate at 38 mg/kg, iv administered twice per week measured after 107 days; type: functional, organism-based; conditions: time 107.0 day
[27] = Toxicity in female BALB/cA nude mouse assessed as appearance of inflammatory lesions in heart at 38 mg/kg, iv administered once a week for 35 days by H and E staining based analysis; type: organism-based; conditions: in vivo, 840 h, time 35 day
HCT-116 [28] = test: Antitumor activity against human HCT-116 cells xenografted in female BALB/cA nude mouse model assessed as increase in tumor cell apoptosis by measuring increase in red fluorescence at 38 mg/kg, iv by TUNEL analysis; type: functional, organism-based
[29] = Toxicity in female BALB/cA nude mouse assessed as animal fatality at 38 mg/kg, iv administered once a week for 35 days; type: organism-based; conditions: in vivo, 840 h, time 35 day
[30] = Toxicity in female BALB/cA nude mouse assessed as appearance of fibrosis in heart at 38 mg/kg, iv measured after 24 hrs by H and E staining based analysis; type: organism-based; conditions: in vivo
[31] = Toxicity in female BALB/cA nude mouse assessed as fibrotic changes in heart at 38 mg/kg, iv administered once a week for 35 days by H and E staining based analysis; type: organism-based; conditions: in vivo, 840 h, time 35 day
[32] = Half life in female BALB/c mouse at 38 mg/kg measured up to 168 hrs by HPLC analysis; type: ADME, organism-based; conditions: in vivo
BXPC-3 [33] = test: Antitumor activity against human BXPC-3 cells xenografted in female BALB/cA nude mouse model assessed as suppression of tumor growth by measuring relative tumor proliferation rate at 38 mg/kg, iv measured after 18 days; type: functional, organism-based; conditions: time 18.0 day
[34] = Toxicity in female BALB/cA nude mouse assessed as effect on body weight loss at 38 mg/kg, iv administered twice per week measured for 107 days; type: organism-based; conditions: in vivo, 2568 h, time 107 day
[35] = Toxicity in female BALB/cA nude mouse assessed as effect on body weight loss at 38 mg/kg, iv administered twice per week measured after 107 days; type: organism-based; conditions: in vivo, 2568 h, time 107 day

For `CCc1c2c(nc3ccc(OCc4ccc(O[C@@H]5O[C@H](C(=O)O)[C@@H](O)[C@H](O)[C@H]5O)c(NC(=O)CCNC(=O)CCCCCN5C(=O)C=CC5=O)c4)cc13)-c1cc3c(c(=O)n1C2)COC(=O)[C@]3(O)CC`, the Activity (BXPC-3 [1]) was 8.97%, the Activity [2] was “Non-toxic” and the Activity [3] was “Non-toxic”. The Activity [4] was “Non-toxic”, the Activity [5] was “Non-toxic” and the Activity [6] was “Non-toxic”. For the same compound, the Activity [7] was “Non-toxic”, the t1/2 [8] was 52.31 h and the Activity (HCT-116 [9]) was “Active”. For the same compound, the Activity [10] was “Non-toxic”, the Activity (HCT-116 [11]) was 100% and the Activity (HCT-116 [12]) was 4.6%. The Activity [13] was “Non-toxic”, the Activity [14] was “Toxic” and the Cmax [15] was 50.7 µg/mL.

With `CCc1c2c(nc3ccc(OCc4ccc(O[C@@H]5O[C@H](C(=O)O)[C@@H](O)[C@H](O)[C@H]5O)c(NC(=O)CCNC(=O)COCCOCCNC(=O)COCCOCCNC(=O)CC[C@H](NC(=O)CCCCCCCCCCCCCCCCC(=O)O)C(=O)O)c4)cc13)-c1cc3c(c(=O)n1C2)COC(=O)[C@]3(O)CC` the Activity [16] was “Toxic”, the Activity [17] was “Non-toxic” and the Activity [18] was “Non-toxic”. For the same compound, the Activity [19] was “Non-toxic”, the clearance [20] was 0.753 mL/min/kg and the Activity [21] was “Toxic”. The Activity [22] was “Non-toxic”, the Cmax [23] was 112 µg/mL and the Drug metabolism [24] was 0.376 % ID/g. The Activity [25] was “Non-toxic”, the Activity (HCT-116 [26]) was “inactive” and the Activity [27] was “Non-toxic”. The Activity (HCT-116 [28]) was “Active”, the Activity [29] was “Non-toxic” and the Activity [30] was “Toxic”. The Activity [31] was “Non-toxic”, the half-life [32] was 3.65 h and the Activity (BXPC-3 [33]) was “inactive”. The Activity [34] was “Non-toxic” and the Activity [35] was “Toxic”.
